Patent publication US20150232457A1, “CRYSTALLINE FORMS OF AFATINIB DI-MALEATE” (RATIOPHARM GMBH, priority 2011, published 2015)
Several values for one entry are separate records, joined by “and”; a condition that tells them apart may be missing. Identical values can stand only once. Like-named read-outs stand apart in the source and are kept apart here.

What was measured:
[1] = crystalline form of US 2005/0085495 (WO2005/037824); cited from earlier work
[2] = Chemical stability at 30° C./65% relative humidity for 4 weeks (HPLC); type: physicochemical; conditions: stable means purity change less than about 1% by HPLC, solid state form maintained
[3] = Investigation of hygroscopicity (dynamic vapour sorption) with Karl-Fischer titration of the product; type: physicochemical
Method: Karl-Fischer titration was carried out using […] from Merck (HX908240). The instructions of the manual were followed and each sample was analyzed in triplicate. […] Investigation of Hygroscopicity (Dynamic Vapour Sorption (DVS)) Instrument: SPSx-1μ, (Projekt Messtechnik) Temperature: 25° C. Humidity cycles: [table] […] Then the sample was analyzed by XRD diffraction.

[4] = Stability and hygroscopicity at 40° C./75% relative humidity; type: physicochemical
Text: The term “non-hygroscopic” as used herein, and unless stated otherwise, refers to crystalline Afatinib di-maleate uptaking/absorbing less than 0.2% (w/w) of atmospheric water to the crystalline Afatinib di-maleate in the below specified conditions, as measured by Karl-Fischer (KF) titration or by monitoring the weight increase during dynamic vapour sorption (DVS) test.

In the case of `CN(C)C/C=C/C(=O)Nc1cc2c(Nc3ccc(F)c(Cl)c3)ncnc2cc1O[C@H]1CCOC1` [Afatinib di-maleate, (E)-4-Dimethylamino-but-2-enoic acid {4-(3-chloro-4-fluoro-phenylamino)-7-[(S)-(tetrahydro-furan-3-yl)oxy]-quinazolin-6-yl}-amide], the hygroscopicity [1] is given as “limited hygroscopisity” and the polymorphic stability [1] is given as “polymorphically stable”.

In the case of `CN(C)C/C=C/C(=O)Nc1cc2c(Nc3ccc(F)c(Cl)c3)ncnc2cc1O[C@H]1CCOC1` [Form C, (E)-4-Dimethylamino-but-2-enoic acid {4-(3-chloro-4-fluoro-phenylamino)-7-[(S)-(tetrahydro-furan-3-yl)oxy]-quinazolin-6-yl}-amide], the chemical stability [2] is reported as “chemically stable”.

With `CN(C)C/C=C/C(=O)Nc1cc2c(Nc3ccc(F)c(Cl)c3)ncnc2cc1O[C@H]1CCOC1` [Form E, (E)-4-Dimethylamino-but-2-enoic acid {4-(3-chloro-4-fluoro-phenylamino)-7-[(S)-(tetrahydro-furan-3-yl)oxy]-quinazolin-6-yl}-amide] the “water content (% by weight), average” value ([3]; Karl-Fischer titration, average of triplicate, after DVS of Form A at 25° C.) was 7.00 % by weight, the “water content (% by weight)” value ([3]; Karl-Fischer titration, single determinations of a triplicate, after DVS humidity cycles of Form A at 25° C., 0-95% relative humidity, listed as Afatinib di-maleate after DVS of Form A) was 6.95 % by weight and 7.15 % by weight and 6.90 % by weight and the “decomposition after DVS” value ([3]; obtained product analysed by 1H-NMR and HPLC) was “no decomposition”. For the same molecule, the hygroscopicity [4] was “not hygroscopic” and the polymorphic stability ([4]; stable means less than 1% converts to any other solid state form) was “polymorphically stable”.
